This note sets out measurements from US20230123334A1, “AMINO LIPID COMPOUND, PREPARATION METHOD THEREFOR, AND APPLICATION THEREOF” (SHENZHEN SHENXIN BIOTECHNOLOGY CO., LTD., priority 2020, published 2023).

Series [1] relates to BALB/c mice. As to the kind of experiment: In vivo delivery of luciferase mRNA (Fluc mRNA) by lipid nanoparticles, in vivo imaging. As to conditions: 0.5 mg/kg Fluc mRNA, after 12 hours. On the procedure: (§1) The amino lipid compound of the invention was mixed with DOPE, cholesterol and PEG2000-DMG in a molar ratio of 45:10:42.5:2.5, and dissolved in absolute ethanol such that the molar concentration of the amino lipid compound was 0.001-0.01 mmol/L. By using a microinjection pump, the resultant ethanol solution and a sodium acetate solution (50 mM, pH=4.0) in which luciferase mRNA (Fluc mRNA, TriLink) was dissolved were mixed in a volume ratio of 1:3 in a microchannel chip to prepare a crude solution of lipid nanoparticles, which was then dialyzed in 1×PBS at a controlled temperature of 4° C. for 6 h using a dialysis box (Fisher, MWCO 20,000) and filtered through a 0.22 μm microporous filter membrane before use. The mass ratio of the amino lipid compound to Fluc mRNA was about 10:1. The resultant solution of lipid nanoparticles (LNPs) was administered to the tested animals by subcutaneous administration.
(§2) The preparation method was the same as Formulation method 1, except that amino lipid compound, DSPC, cholesterol and PEG2000-DMG were used in a molar ratio of 50:10:38.5: 1.5. The resultant solution of lipid nanoparticles (LNPs) was administered to the tested animals by tail vein and intramuscular injection.
(§3) Animal Preparation: 6-week aged female BALB/c mice weighed about 20 g were selected and fed in a SPF-grade feeding room. Animal tests were conducted strictly according to the guidelines of national health institutions and the requirements of animal ethics.
In vivo delivery: 9 mice were assigned randomly to each group, and the lipid nanoparticle solution was injected by three routes of administration, i.e., subcutaneous, intramuscular and tail vein injection at a dosage of 0.5 mg/kg Fluc mRNA (3 mice for each route of administration). After 12 hours, 200 μL of 10 mg/mL potassium salt of […] (PerkinElmer) was injected into each mouse through the tail vein. After 10 min, the mice were placed under an in vivo imaging system (IVIS-200, Xenogen) to observe the total fluorescence intensity of each mouse and take photographs for record. The expression intensity of Fluc mRNA delivered by representative amino lipid compounds through the three routes of administration are shown in Table 5-7. DLin-MC3 was used as control.

Series [2] has as its system BALB/c mice. As to the kind of experiment: In vivo delivery of ovalbumin mRNA (OVA mRNA) and immunity, IgG antibody titer by ELISA. The note with it: OVA mRNA LNPs 0.5 mg/kg Day 0 and Day 7, serum Day 21, versus DLin-MC3 control, FIG. 1. On the procedure:
The amino lipid compound of the invention was mixed with DOPE, cholesterol and PEG2000-DMG in a molar ratio of 50:10:38.5:1.5 and dissolved in absolute ethanol such that the molar concentration of the amino lipid compound was 0.001-0.01 mmol/L. Ovalbumin mRNA (OVA mRNA, TriLink) was dissolved in sodium acetate solution (50 mM, pH=4.0). By using a microinjection pump, the resultant ethanol solution and sodium acetate solution (50 mM, pH=4.0) were mixed in a volume ratio of 1:3 in a microchannel chip to prepare a crude solution of lipid nanoparticles, which was then dialyzed in 1×PBS at a controlled temperature of 4° C. for 6 h using a dialysis box (Fisher, MWCO 20,000), and filtered through a 0.22 μm microporous filter membrane before use. The mass ratio of the amino lipid compound to ovalbumin mRNA (OVA mRNA) was about 10:1.
as §3
In vivo delivery: 3 mice were assigned randomly to each group, and the lipid nanoparticle solution was intramuscularly injected into the leg at a dosage of 0.5 mg/kg mRNA (Day 0). After 7 days, one booster injection was performed at the same dosage (Day 7). On Day 21, blood was taken from the tail vein for serological analysis. DLin-MC3 was used as control (FIG. 1).
Enzyme-linked immunosorbent assay (ELISA): a flat-bottomed 96-well plate (Nunc) was pre-coated, with a concentration of OVA protein of 0.5 μg protein per well in 50 mM carbonate buffer (pH 9.6), and was allowed to stay overnight at 4° C. and then blocked with 5% glycine. Serum obtained from animals receiving the lipid nanoparticle solution containing the mRNA was diluted from 10^2 to 10^6 times with PBS-0.05% Tween (PBS-T) at pH 7.4, and added to the wells, incubated at room temperature and placed at 37° C. for 1 h. Horseradish peroxidase (HRP, Invitrogen) coupled goat anti-mouse IgG was used for labeling in PBS-T-1% BSA at a dilution rate of 1:10,000. After addition of the HRP substrate, the absorbance at 450 nm was measured in ELISA microplate reader (Bio-Rad).

Series [3] is described as follows: Encapsulation rate of LNP RNA (Qubit RNA HS Assay kit). It counts as physicochemical. The note with it: LNPs. Here is the method:
as §1
Detection of encapsulation rate: the concentration of LNP RNA was detected by Qubit® RNA HS Assay kit. The theoretical RNA concentration was given by the total amount of RNA input divided by the total volume of the final solution.
as §2

The nature of series [4]: Particle size and PDI of lipid nanoparticles (Nano-ZSZEN3600, Malvern). It counts as physicochemical. The note with it: LNPs; for Particle size (nm): Fluc mRNA. Here is the method: as §1
Characterization of particle size: the particle size and PDI of the prepared lipid nanoparticles were determined by Nano-ZSZEN3600 (Malvern). 40 uL of LNP solution was taken for particle size measurement with circulation for three times, 30 s for each circulation.
as §2

The mark [5] stands for this setting: Formulation Method 1 (amino lipid:DOPE:cholesterol:PEG2000-DMG 45:10:42.5:2.5).
Setting [6] is: Formulation method 2 (amino lipid:DSPC:cholesterol:PEG2000-DMG 50:10:38.5:1.5).

On to `CCCCCCCCCCCCCCCCCCSc1nc(NCCN2CCCC2)nc(SCCCCCCC)n1` [Compound S7S18D3], for which the results for the “Fluorescence intensity (expression intensity of Fluc mRNA)” value (“Fluorescence intensity” for short) in series [1] (intramuscular administration), in series [1] (subcutaneous administration) and in series [1] (tail vein administration) were 8.7E+07, 2.9E+08 and 8.1E+07, respectively. Besides, the IgG antibody titer result in series [2] is on record as “significantly superior to that of the control”. The Encapsulation rate in series [3] (Formulation Method 1) is recorded as 99.5%; in series [3] (Formulation method 2), 99.3%. The PDI in series [4] (Formulation Method 1) was found to be 0.10; in series [4] (Formulation method 2) it was 0.04. Moreover, the “Particle size (nm)” value in series [4] (setting [5]) is 121 ± 5 nm; in series [4] (setting [6]), 95 ± 5 nm.

In the case of `CCCCCCCCCCCCCCCCSc1nc(NCCCCCCC)nc(NCCCN2CCN(C)CC2)n1` [Compound S16N7D9], the “Fluorescence intensity” value was 4.3E+07 in series [1] (intramuscular administration), 1.4E+07 in series [1] (subcutaneous administration) and 5.1E+07 in series [1] (tail vein administration). The IgG antibody titer result in series [2] is reported as “significantly superior to that of the control”. The values for the Encapsulation rate in series [3] (Formulation Method 1) and in series [3] (Formulation method 2) were 98.6% and 99.2%, respectively. The PDI was 0.01 in series [4] (Formulation Method 1) and 0.05 in series [4] (Formulation method 2). Moreover, the “Particle size (nm)” value in series [4] (setting [5]) is reported as 102 ± 5 nm; in series [4] (setting [6]) it was 92 ± 5 nm.

For the compound `CCCCCCCC/C=C\CCCCCCCCSc1nc(OCCN2CCCC2)nc(SCCCCCCCCC)n1` [Compound S19S9O8], the “Fluorescence intensity” value in series [1] (intramuscular administration) was found to be 9.1E+07; in series [1] (subcutaneous administration), 1.1E+07; in series [1] (tail vein administration), 1.1E+08. Further, the IgG antibody titer result in series [2] is “significantly superior to that of the control”. Also, the Encapsulation rate in series [3] (Formulation Method 1) came out at 99.6%; in series [3] (Formulation method 2), 99.2%. In addition, the PDI in series [4] (Formulation Method 1) was 0.02; in series [4] (Formulation method 2), 0.03. Also, the “Particle size (nm)” value in series [4] (setting [5]) and in series [4] (setting [6]) was 88 ± 5 nm each time.

For the compound `CCCCCCCC/C=C\CCCCCCCCSc1nc(OCC2CCN(C)CC2)nc(SCCCCCCCCC)n1` [Compound S19S9O9], the “Fluorescence intensity” value in series [1] (intramuscular administration) is 1.8E+07; in series [1] (subcutaneous administration), 2.8E+07; in series [1] (tail vein administration), 3.1E+07. Moreover, the IgG antibody titer result in series [2] is recorded as “significantly superior to that of the control”. Further, the Encapsulation rate is on record as 99.2% in series [3] (Formulation Method 1) and 99.0% in series [3] (Formulation method 2). For the same compound, the PDI worked out at 0.04 in series [4] (Formulation Method 1) and 0.05 in series [4] (Formulation method 2). For the same compound, the “Particle size (nm)” value in series [4] (setting [5]) and in series [4] (setting [6]) was 110 ± 5 nm each time.
